Results: patent publication US20090215893A1, “Parakeratosis inhibitor, pore-shrinking agent,or rough skin preventing/ameliorating agent, and external composition for skin” (Shiseido Company Ltd, priority 2005, published 2009)

How the values were obtained:
[1] = tested on: back of hairless mice (HR-1), 10 mass % oleic acid applied; test: Inhibiting effect against rough skin induced by oleic acid application (transepidermal water loss); format: in vivo; parameters: ΔTEWL value: unit not given here; settings: for ΔTEWL value: sample 3 mass %, three days, average of four animals, rough skin worse as value increases, control 12.0; for ΔTEWL value compared with the control aqueous solution / rough skin preventing/ameliorating effect: summary of Table 3, concentrations as in Table 3
Description: In order to investigate the inhibiting effect of α-amino acid derivatives and salts thereof against rough skin induced by oleic acid application, the transepidermal water loss (TEWL value) before and after application was measured, the difference was compared with the control (control aqueous solution), and the effect was determined. Sample preparation and the application method were in accordance with Example 1. The TEWL was determined using the TM210 TEWA Meter (Courage+Khazaka Electronic GmBH).
100 μL of 10 mass % oleic acid (solvent: ethanol) was applied to the back of hairless mice (HR-1, four mice per group). Then a sample solution (α-amino acid derivatives, and the like) was applied 100 μL at a time. This procedure was continued for three days. The following day, the TEWL value of the back was determined and the values of the four animals were averaged. Rough skin became worse as the ΔTEWL value increased.

[2] = tested on: pores of the cheeks of healthy human males; test: Human pore-shrinking effect (replica assessment of cheek pores); format: in vivo; settings: for Replica assessment (average of n = 5): sample 3 mass %, twice a day for one month, pore size rating 1-13, after application minus before application, control 0.3; for pore-shrinking effect: summary of Table 2, concentrations as in Table 2
Description: An experiment was conducted whereby a sample was applied twice a day for one month to the cheeks of healthy human males in groups of 5 men each. Aqueous solutions (containing 15 mass % of ethanol) of 3 mass % of the α-amino acid derivative or a salt thereof were prepared as the evaluation sample. The pH was regulated by hydrochloric acid or sodium hydroxide so as to be 7.0 to 7.5. When sample solubility was low, the solution was prepared accordingly. The control was an aqueous 15% ethanol solution. The sample aqueous solution and control aqueous solution were applied to one half of the face at a time.
A replica was collected before and after continuous application, and changes in the shape of the pores at the same site were observed using a three-dimensional laser scanning microscope. The size of the pores was macroscopically evaluated in 13 steps of 1 through 13 (with the pores becoming larger as the numbers became larger), the difference in the ratings before and after application (after application-before application) was calculated, and the efficacy of each sample was studied using this difference as the replica assessment.

[3] = tested on: cheek of a panel of 20 women; test: Sensory irritation tests; format: in vivo, human; settings: for Evaluation (sensory irritation, class of average rating): sample 3 mass %, 1 mL on cheek, evaluated for ten minutes, 20 women; for sensory irritation: summary of Table 4, β-alanine at 3%
Description: 1 mL of a control aqueous solution and the sample aqueous solution prepared in Example 1 were applied using a cotton swab to the left or right cheek, respectively, of a panel of 20 women, the irritating sensation was evaluated every 30 seconds for ten minutes beginning immediately after application, and a final evaluation was reported. The evaluation of the irritating sensation was based on the following four steps of rating criteria, the average rating was calculated, and the average was classified by the following criteria.
3: Discontinued because of extremely strong irritation, such as stinging sensation, burning sensation, tickling sensation, itching, and the like.
2: Intolerable strong irritation, such as stinging sensation, burning sensation, tickling sensation, itching, and the like.
1: Tolerable with only slight stinging sensation, burning sensation, tickling sensation, itching, and the like.
0: Not particularly irritating.
A: average rating of less than 0.2
B: average rating of 0.2 to less than 1.0
C: average rating of 1.0 to less than 2.0
D: average rating of 2.0 or greater

[4] = tested on: back of a hairless mouse (HR-1), 10 mass % oleic acid applied; test: Parakeratosis-inhibiting effect tests: oleic acid applied to hairless mouse back, macroscopic rough skin evaluation and parakeratosis value; format: in vivo; settings: for Macroscopic evaluation (average of four animals) / Parakeratosis value (average of four animals): sample 3 mass %; for Macroscopic evaluation (average of four animals): 100 μL after oleic acid, three days, rough skin score 0.0 (no redness) to 2.0 (control); for Parakeratosis value (average of four animals): tape-stripped stratum corneum, hematoxylin, range 1.0 to 3.0, higher = parakeratosis advanced, control 2.0; for parakeratosis value / parakeratosis-inhibiting effect / rough skin preventing effect, based on stratum corneum peeling and redness: summary of Table 1, concentrations as in Table 1
Description: Aqueous solutions (containing 30 mass % of ethanol) of primarily 3 mass % of an α-amino acid derivative or salt thereof were prepared as the evaluation sample. The pH was regulated by hydrochloric acid or sodium hydroxide so as to be 7.0 to 7.5. When sample solubility was low, the solution was prepared accordingly.
100 μL of 10 mass % oleic acid solution (solvent: ethanol) were applied to the back of a hairless mouse (HR-1; Hoshino Laboratory Animals). Then the sample solution (α-amino acid derivative, and the like) was applied 100 μL at a time. This procedure was continued for three days. […] The status of the skin was evaluated in 0.25-point intervals, with skin where the control (control aqueous solution) had been applied being 2.0 and skin where there was no redness being 0.0. At the same time, the stratum corneum at the back of the hairless mouse was peeled off with tape, the nuclei were stained by hematoxylin, and the degree of parakeratosis was observed and evaluated by a parakeratosis value within a range of 1.0 to 3.0 (in 0.25 increments).

SMILES	ΔTEWL value [1]	ΔTEWL value compared with the control aqueous solution / rough skin preventing/ameliorating effect [1]	Replica assessment (average of n = 5) [2]	pore-shrinking effect [2]	Evaluation (sensory irritation, class of average rating) [3]	sensory irritation [3]	Macroscopic evaluation (average of four animals) [4]	Parakeratosis value (average of four animals) [4]	parakeratosis value / parakeratosis-inhibiting effect [4]	rough skin preventing effect, based on stratum corneum peeling and redness [4]
C[C@H](NC1CCCCC1)C(=O)O [N-cyclohexyl-L-alanine]	7.1	significantly lower	−1.2	seen	A (average rating of less than 0.2)	no problems	1.4	1.3	reduced	seen
O=C(O)[C@H](CO)NC1CCCCC1 [N-cyclohexyl-L-serine]	7.0	significantly lower	−1.4	seen	A (average rating of less than 0.2)	no problems	1.3	1.2	reduced	seen
O=C(O)CNC1CCCCC1 [N-cyclohexyl-glycine]	6.4	significantly lower	−1.5	seen	A (average rating of less than 0.2)	no problems	1.2	1.1	reduced	seen
CCN[C@H](C)C(=O)O [N-ethyl-D-alanine]	8.3	significantly lower	−0.5	seen	A (average rating of less than 0.2)	no problems	1.6	1.7	reduced	seen
CCN[C@H](CO)C(=O)O [N-ethyl-D-serine]	7.9	significantly lower	−1.2	seen	A (average rating of less than 0.2)	no problems	1.3	1.3	reduced	seen
CCN[C@@H](C)C(=O)O [N-ethyl-L-alanine]	8.4	significantly lower	−0.4	seen	A (average rating of less than 0.2)	no problems	1.5	1.4	reduced	seen
CCN[C@@H](CO)C(=O)O [N-ethyl-L-serine]	7.7	significantly lower	−1.2	seen	A (average rating of less than 0.2)	no problems	1.4	1.4	reduced	seen
CN[C@H](C)C(=O)O [N-methyl-D-alanine]	8.2	significantly lower	−0.7	seen	A (average rating of less than 0.2)	no problems	1.2	1.3	reduced	seen
CN[C@H](CO)C(=O)O [N-methyl-D-serine]	8.0	significantly lower	−1.5	seen	A (average rating of less than 0.2)	no problems	1.4	1.5	reduced	seen
CN[C@@H](C)C(=O)O [N-methyl-L-alanine]	8.3	significantly lower	−0.8	seen	A (average rating of less than 0.2)	no problems	1.4	1.4	reduced	seen
CN[C@@H](CO)C(=O)O [N-methyl-L-serine]	7.9	significantly lower	−1.2	seen	A (average rating of less than 0.2)	no problems	1.3	1.2	reduced	seen
